Data from patent US20050042213A1, “Methods and pharmaceutical compositions for modulating heparanase activation and uses thereof” (InSight Biopharmaceuticals Ltd., priority 2003, published 2005).

Experiments:
[1] = biological target: T1, pro-heparanase transiently expressed in 293 cells (Homo sapiens, UniProt Q9Y251, K307R); test: Pro-heparanase processing in transiently transfected 293 cells (Western blot); assay type: cell-based
T1 sequence (Q9Y251 36-543 K307R): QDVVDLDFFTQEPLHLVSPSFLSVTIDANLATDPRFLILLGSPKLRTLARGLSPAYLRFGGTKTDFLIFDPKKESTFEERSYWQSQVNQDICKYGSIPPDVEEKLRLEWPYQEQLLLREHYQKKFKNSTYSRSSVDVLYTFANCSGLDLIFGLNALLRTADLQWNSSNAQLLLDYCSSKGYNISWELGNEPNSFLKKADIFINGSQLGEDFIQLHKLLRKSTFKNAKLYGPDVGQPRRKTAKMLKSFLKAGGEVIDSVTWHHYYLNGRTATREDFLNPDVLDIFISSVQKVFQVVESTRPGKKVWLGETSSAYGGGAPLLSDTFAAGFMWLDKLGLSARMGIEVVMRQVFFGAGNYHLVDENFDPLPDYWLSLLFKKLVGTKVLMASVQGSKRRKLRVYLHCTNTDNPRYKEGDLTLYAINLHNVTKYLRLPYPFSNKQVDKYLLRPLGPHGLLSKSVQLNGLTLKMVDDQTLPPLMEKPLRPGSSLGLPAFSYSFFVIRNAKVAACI
Method: Western blot analysis—Western blot analysis was performed using rabbit anti-heparanase polyclonal antibodies as described in U.S. Pat. Nos. 6,177,545; 6,531,129; and 6,562,950.
Transient transfections—293 cells (200,000) were plated onto a 6 well tissue culture plate. 24 hrs later, the cells were transfected with 1 μg pSI (Promega) hpa plasmid (U.S. Pat. No. 6,475,763) in 3 μl Fugene reagent that was pre-incubated for 15 min in 100 μl medium without serum. Cells were treated with inhibitors 4 and 17 hrs following transfection.

[2] = biological target: T2, pro-heparanase (H60) (Homo sapiens, UniProt Q9Y251, K307R); test: Surface plasmon resonance, interaction with the pro-heparanase polypeptide; assay type: binding; conditions: data not shown
T2 sequence (Q9Y251 36-543 K307R): T1 sequence (Q9Y251 36-543 K307R)

[3] = system: HUVEC cells; test: Cord Formation Assay; assay type: cell-based; conditions: Homo sapiens; HUVEC cells on matrigel, 24 h; read-out: Inhibition of cord formation IC50
Method: Cord formation and cell migration assays were executed following explicit directives provided by the inventors of the present invention by the National Cancer Institute (Biological Testing Branch, Developmental Therapeutics Program, DCTD, NCI, Fairview Center, Suite 205, 1003 West 7th Street, Frederick, Md. 21701-8527).
Cord Formation Assay—Matrigel (60 μl of 10 mg/ml; Collaborative Lab # 35423) was placed in each well of an ice-cold 96-well plate. The plate was incubated at room temperature for 15 minutes and then transferred to 37° C. for 30 minutes to permit matrigel polymerization. Concomitantly with plate coating, HUVEC cells were diluted in EGM-2 (Clonetic # CC3162) at a concentration of 2×10^5 cells/ml. Each test compound was prepared at a 2 fold higher concentration than desired (5 concentration levels) using the same medium. Cells (500 μl) and 2× drug (500 μl) were mixed and 200 μl of this suspension were placed in duplicates on the polymerized matrigel. Following 24 h incubation, triplicate pictures were taken for each concentration using a Bioquant Image Analysis system. Drug effect (IC50) was assessed by comparing to untreated controls and measuring the length of cords formed and number of junctions.

[4] = biological target: T3, heparanase (H53) (Homo sapiens, UniProt Q9Y251, K307R); test: Heparanase activity inhibition (H53), DMB assay; assay type: biochemical
T3 sequence (Q9Y251 158-543 K307R limits assumed): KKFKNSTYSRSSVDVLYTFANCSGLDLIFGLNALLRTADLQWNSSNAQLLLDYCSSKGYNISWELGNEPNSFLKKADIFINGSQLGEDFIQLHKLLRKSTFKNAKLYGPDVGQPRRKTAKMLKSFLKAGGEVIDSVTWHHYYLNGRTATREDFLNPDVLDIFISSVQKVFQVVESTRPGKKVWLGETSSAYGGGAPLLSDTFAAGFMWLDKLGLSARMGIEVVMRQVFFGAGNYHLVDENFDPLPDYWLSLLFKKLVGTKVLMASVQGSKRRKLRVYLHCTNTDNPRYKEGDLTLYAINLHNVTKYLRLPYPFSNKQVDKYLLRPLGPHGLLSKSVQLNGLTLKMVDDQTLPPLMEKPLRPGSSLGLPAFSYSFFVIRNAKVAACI
T3 sequence (Q9Y251 36-109 limits assumed): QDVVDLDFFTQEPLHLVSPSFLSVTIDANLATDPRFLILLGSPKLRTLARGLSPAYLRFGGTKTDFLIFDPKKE
Method: At the end of the incubation, the cells were lysed by three consecutive cycles of freezing and thawing in a −80° C. Freezer and a 37° C. shaker. Formation of active heparanase was detected by determination of heparanase activity in DMB assay as described in patent application U.S. Pat. No. 6,190,875B.

[5] = system: MPanc-96 pancreatic tumor cells; test: MPanc-96 pancreatic tumor xenograft in SCID mice; assay type: in vivo
Method: Mpanc-96 tumor cell injection—MPanc-96 pancreatic tumor cells were obtained from the ATCC(CCL-2380). On day 1, cells (5×10^6 cells/0.2 ml RPMI+FBS) were subcutaneously injected to the right flank, midway between the axillary and inguinal regions, of SCID mice. Prior to injection the cells were mixed by gentle vortexing. The cells were injected using a 25G needle, and the appearance of a bulge was observed. Following injection to animals, cells were counted in the leftover tubes with trypan blue, and re-cultured to test proliferation.
Compound 5 injections—Tumors were measured prior to inhibitor injection. […] The animals were injected intraperitoneally, daily, twice a day, starting 6 days after tumor cells injection, with 50 μl plain DMSO or 50 μl of Compound 5 in DMSO (8 mg/ml in DMSO).
Tumor growth—Tumor size was measured in two perpendicular dimensions, twice a week using digital calipers. Volumes were estimated using the formula (α^2×β)/2, where α is the shorter of the two dimensions, and β is the longer of the two dimensions.
Study termination—At the end of the study, 21 days following tumor cell injection, animals were euthanized by IP veterinary penthal injection. In case of severe weight loss (>20%), a tumor>1000 mm^3 or depression, an animal was euthanized prior to the study's termination day. Upon animal death prior to the end of the study, body weight and tumor size were measured.

Compound: O=C(O)CCCN1C(=O)C(=Cc2ccc(-c3ccc([N+](=O)[O-])cc3)o2)SC1=S [Compound 5]
- pro-heparanase expression [1]: did not affect pro-heparanase expression
- pro-heparanase processing [1]: completely inhibited pro-heparanase processing
- binding to the H60 molecule [2]: reversibly bind
- IC50 [3]: 3.9 µM
- heparanase activity inhibition (H53) in addition to inhibition of pro-heparanase activation [4]: dual activity
- IC50 ([4]; heparanase activity inhibition (H53), NI = no inhibition): 12.5 µM
- reduction of tumor volume ([5]; 10 mg/kg/day, compared with 40 mg/kg/day): twice as much reduction
- reduction of tumor volume ([5]; 40 mg/kg/day, intraperitoneally, SCID mice): 35%
- tumor growth in SCID mice ([5]; mouse, in vivo): inhibited tumor growth in SCID mice efficiently
